Patent publication US20190358369A1, “Drug releasing coatings for medical devices and methods of making same” (BIOTRONIK AG, priority 2016, published 2019)
Like-named read-outs stand apart in the source and are kept apart here.

Legend:
[1] = target: bovine serum albumin (BSA) (Bos taurus, UniProt P02769); test: Albumin binding by ammonium sulfate precipitation and LCMS; format: in vitro ADME; settings: bovine serum albumin (BSA) solution, 10 uM drug, 1.4 mg/mL BSA in normal saline, 30 minutes ambient, supernatant, average of four separate days
Sequence of bovine serum albumin (BSA) (P02769 25-607): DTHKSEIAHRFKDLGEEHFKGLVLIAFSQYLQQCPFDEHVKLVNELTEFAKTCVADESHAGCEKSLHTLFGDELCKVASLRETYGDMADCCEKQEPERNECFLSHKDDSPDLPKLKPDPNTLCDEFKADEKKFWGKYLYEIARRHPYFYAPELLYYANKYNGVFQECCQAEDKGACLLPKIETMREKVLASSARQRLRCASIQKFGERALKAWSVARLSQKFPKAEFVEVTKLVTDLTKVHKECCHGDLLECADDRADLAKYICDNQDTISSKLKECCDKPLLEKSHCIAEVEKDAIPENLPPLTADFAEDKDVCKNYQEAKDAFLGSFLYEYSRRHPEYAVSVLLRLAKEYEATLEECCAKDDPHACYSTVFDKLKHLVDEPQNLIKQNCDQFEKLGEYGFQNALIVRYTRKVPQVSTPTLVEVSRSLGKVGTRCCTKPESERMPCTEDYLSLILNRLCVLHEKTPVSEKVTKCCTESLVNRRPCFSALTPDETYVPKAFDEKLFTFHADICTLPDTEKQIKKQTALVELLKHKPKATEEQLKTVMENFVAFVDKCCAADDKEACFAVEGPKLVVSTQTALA
Experimental: Sirolimus-albumin binding has previously been reported. […] The drug spiked BSA solutions were mixed by inversion and allowed to equilibrate at ambient temperature for 30 minutes to allow drug binding to the albumin protein. 826 mg ammonium sulfate was next added to each sample and mixed by gentle inversion until the salt had completely dissolved and precipitate formed. Samples were then vortexed for 20 seconds then centrifuged for 6.5 minutes at 7200×g. To both supernatant and separated precipitate 0.750 mL methanol and 0.250 mL acetonitrile containing internal standard was added to each sample. Samples were tested for drug content by LCMS where the supernatant amount represents unbound drug and the precipitate amount the bound drug. Recovery verifiction tests were performed as above but using solutions of saline plus drug without BSA.
Values reported are the average of a separate test on each of four separate days.

[2] = Porcine Coronary Arteries, from US 2014/0046254, cited from earlier work

SMILES: CO[C@H]1C[C@@H]2CC[C@@H](C)[C@@](O)(O2)C(=O)C(=O)N2CCCC[C@H]2C(=O)O[C@H]([C@H](C)C[C@@H]2CC[C@@H](O)[C@H](OC)C2)CC(=O)[C@H](C)/C=C(\C)[C@@H](O)[C@@H](OC)C(=O)[C@H](C)C[C@H](C)/C=C/C=C/C=C/1C [Sirolimus]
- fraction unbound at 30 min, 10 uM [1]: 0.062

SMILES: CO[C@H]1C[C@@H]2CC[C@@H](C)[C@@](O)(O2)C(=O)C(=O)N2CCCC[C@H]2C(=O)O[C@H]([C@H](C)C[C@@H]2CC[C@@H](OCCO)[C@H](OC)C2)CC(=O)[C@H](C)/C=C(\C)[C@@H](O)[C@@H](OC)C(=O)[C@H](C)C[C@H](C)/C=C/C=C/C=C/1C [US 2014/0046254 Everolimus, Everolimus]
- Normalized Uptake (ng drug/mg tissue/μg drug on balloon) ([2]; 3 days): 0.02 ng/mg/µg

SMILES: CO[C@H]1C[C@@H]2CC[C@@H](C)[C@@](O)(O2)C(=O)C(=O)N2CCCC[C@H]2C(=O)O[C@H]([C@H](C)C[C@@H]2CC[C@H](n3cnnn3)[C@H](OC)C2)CC(=O)[C@H](C)/C=C(\C)[C@@H](O)[C@@H](OC)C(=O)[C@H](C)C[C@H](C)/C=C/C=C/C=C/1C [US 2014/0046254 Zotarolimus, Zotarolimus]
- Normalized Uptake (ng drug/mg tissue/μg drug on balloon) ([2]; 7 days): 0.04 ng/mg/µg
